Drawing on BindingDB's records for doi:10.1021/acsmedchemlett.1c00082 (Bristol Myers Squibb, 2021), this text covers IC50 for one molecule.

Each structure is given as a SMILES string.

A short description of this assay: Antagonist activity at CCR2 in human peripheral blood mononuclear cells assessed as reduction in MCP1-induced chemotaxis measured after 30 mins by calcein-AM dye based fluorescence assay.

The term IC50 denotes the concentration at which inhibition is half-maximal. On to `CN[C@@H]1CC[C@H](N2CC[C@H](Nc3ncnc4ccc(C(F)(F)F)cc34)C2=O)[C@H](NC(C)=O)C1`, for which the half-maximal inhibitory concentration (IC50) is 1.7 nM.
